Laboratory results taken from the supplement of paper PMC11061612.

Legend:
Assay in all cases: Bliss excess, mean over the matrix (fraction); higher = more synergy
[1] = system: HCC-15 (Squamous Cell Lung Carcinoma)
In short: (§1)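 After 24 hours at 37°C and 5% CO2 in 1536-well plates, cells in DMEM/F12 or RPMI plus 10% FBS received two-drug dose matrices for 72 hours. Viability came from CellTiter-Glo 2.0 luminescence and was scaled as inhibition, anchored at 0 by vehicle wells and at 1 by blank wells. Combination Emax is taken as the second-highest inhibition in the matrix, and Bliss excess as the observed combination effect less EA + EB − EA·EB, with EA and EB the single-agent effects.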

[2] = system: MHH-PREB-1 (B-Cell Non-Hodgkin's Lymphoma)
In short: as §1

[3] = system: NCI-H747 (Colorectal Carcinoma)
In short: as §1

[4] = system: OC-314 (Ovarian Carcinoma)
In short: as §1

[5] = system: SU-DHL-6 (B-Cell Non-Hodgkin's Lymphoma)
In short: as §1

[6] = system: SW1116 (Colorectal Carcinoma)
In short: as §1

[7] = system: SW626 (Colorectal Carcinoma)
In short: as §1

[8] = system: TE-4 (Esophageal Squamous Cell Carcinoma)
In short: as §1

CC1(C)CCC(CN2CCN(c3ccc(C(=O)NS(=O)(=O)c4ccc(NCC5CCOCC5)c([N+](=O)[O-])c4)c(Oc4cnc5[nH]ccc5c4)c3)CC2)=C(c2ccc(Cl)cc2)C1 [Venetoclax] + CN(C)CCCOc1ccc(-c2ccc3ncc4c(c3c2)n(C2CCOCC2)c(=O)n4C)cn1 [AZD0156] (first compound max 1 µM, 7x7, partner max 1 µM)
Bliss excess [1]: -0.0196
Bliss excess [2]: 0.0029
Bliss excess [3]: -0.0497
Bliss excess [4]: 0.008
Bliss excess [5]: 0.036
Bliss excess [6]: -0.0409
Bliss excess [7]: -0.0381
Bliss excess [8]: -0.0191

COc1nnc2ccc(N3CCC(c4ccc(OCCN5CCN(C)C(=O)[C@H]5C)cc4)CC3)nn12 [AZD5153] + CCN(CCO)CCCOc1ccc2c(Nc3cc(CC(=O)Nc4cccc(F)c4)[nH]n3)ncnc2c1 [AZD2811] (first compound max 1 µM, 7x7, partner max 1 µM)
Bliss excess [1]: -0.0646
Bliss excess [2]: 0.0074
Bliss excess [3]: -0.0623
Bliss excess [4]: -0.04
Bliss excess [5]: -0.0215
Bliss excess [6]: -0.0632
Bliss excess [7]: -0.0348
Bliss excess [8]: -0.0116

NC1(C(=O)N[C@@H](CCO)c2ccc(Cl)cc2)CCN(c2ncnc3[nH]ccc23)CC1 [Capivasertib] + CCN(CCO)CCCOc1ccc2c(Nc3cc(CC(=O)Nc4cccc(F)c4)[nH]n3)ncnc2c1 [AZD2811] (first compound max 10 µM, 7x7, partner max 1 µM)
Bliss excess [1]: -0.0366
Bliss excess [2]: -0.0306
Bliss excess [3]: -0.0255
Bliss excess [4]: -0.015
Bliss excess [5]: 0.0406
Bliss excess [6]: -0.0435
Bliss excess [7]: -0.0338
Bliss excess [8]: 0.0241

COc1nnc2ccc(N3CCC(c4ccc(OCCN5CCN(C)C(=O)[C@H]5C)cc4)CC3)nn12 [AZD5153] + Cc1c2c(nn1C)CSCc1cc(n(C)n1)CSc1cc(c3ccccc3c1)OCCCc1c(C(=O)O)n(C)c3c-2c(Cl)ccc13 [AZD5991] (first compound max 1 µM, 7x7, partner max 1 µM)
Bliss excess [1]: -0.0105
Bliss excess [2]: -0.0418
Bliss excess [3]: -0.0442
Bliss excess [4]: -0.0625
Bliss excess [5]: -0.0326
Bliss excess [6]: 0.0091
Bliss excess [7]: -0.0374
Bliss excess [8]: -0.0212

CC(=O)c1c(C)c2cnc(Nc3ccc(N4CCNCC4)cn3)nc2n(C2CCCC2)c1=O [Palbociclib] + Cn1cnc2c(F)c(Nc3ccc(Br)cc3Cl)c(C(=O)NOCCO)cc21 [Selumetinib] (first compound max 10 µM, 7x7, partner max 10 µM)
Bliss excess [1]: -0.0069
Bliss excess [2]: -0.0401
Bliss excess [3]: -0.0022
Bliss excess [4]: 0.0141
Bliss excess [5]: 0.167
Bliss excess [6]: -0.0189
Bliss excess [7]: -0.057
Bliss excess [8]: -0.0115

Cn1cnc2c(F)c(Nc3ccc(Br)cc3Cl)c(C(=O)NOCCO)cc21 [Selumetinib] + CCN(CCO)CCCOc1ccc2c(Nc3cc(CC(=O)Nc4cccc(F)c4)[nH]n3)ncnc2c1 [AZD2811] (first compound max 10 µM, 7x7, partner max 1 µM)
Bliss excess [1]: -0.03
Bliss excess [2]: -0.0203
Bliss excess [3]: -0.0428
Bliss excess [4]: -0.0193
Bliss excess [5]: 0.0923
Bliss excess [6]: 0.0021
Bliss excess [7]: 0.025
Bliss excess [8]: -0.0273

COc1nnc2ccc(N3CCC(c4ccc(OCCN5CCN(C)C(=O)[C@H]5C)cc4)CC3)nn12 [AZD5153] + C[C@@H]1COCCN1C2=NC(=NC(=C2)C3(CC3)[S@](=N)(=O)C)C4=C5C=CNC5=NC=C4 [AZD6738] (first compound max 1 µM, 7x7, partner max 10 µM)
Bliss excess [1]: 0.069
Bliss excess [2]: 0.0605
Bliss excess [3]: 0.0079
Bliss excess [4]: 0.0111
Bliss excess [5]: -0.0505
Bliss excess [6]: -0.0165
Bliss excess [7]: 0.054
Bliss excess [8]: 0.0983

Cc1nc(Nc2ncc(C(=O)Nc3c(C)cccc3Cl)s2)cc(N2CCN(CCO)CC2)n1 [Dasatinib] + CC(=O)Nc1cccc(-n2c(=O)n(C3CC3)c(=O)c3c(Nc4ccc(I)cc4F)n(C)c(=O)c(C)c32)c1 [Trametinib] (first compound max 2 µM, 7x7, partner max 1 µM)
Bliss excess [1]: 0.193
Bliss excess [2]: -0.0504
Bliss excess [3]: -0.0238
Bliss excess [4]: 0.0153
Bliss excess [5]: 0.0272
Bliss excess [6]: 0.0459
Bliss excess [7]: 0.0385
Bliss excess [8]: -0.12

Cn1cnc2c(F)c(Nc3ccc(Br)cc3Cl)c(C(=O)NOCCO)cc21 [Selumetinib] + C=CCn1c(=O)c2cnc(Nc3ccc(N4CCN(C)CC4)cc3)nc2n1-c1cccc(C(C)(C)O)n1 [AZD1775] (first compound max 10 µM, partner max 1 µM)
Bliss excess [1]: 0.0018
Bliss excess [2]: -0.0531
Bliss excess [3]: -0.0761
Bliss excess [4]: -0.027
Bliss excess [5]: -0.0229
Bliss excess [6]: -0.0031
Bliss excess [7]: -0.0577
Bliss excess [8]: -0.0849

CC(=O)c1c(C)c2cnc(Nc3ccc(N4CCNCC4)cn3)nc2n(C2CCCC2)c1=O [Palbociclib] + Cc1c2c(nn1C)CSCc1cc(n(C)n1)CSc1cc(c3ccccc3c1)OCCCc1c(C(=O)O)n(C)c3c-2c(Cl)ccc13 [AZD5991] (first compound max 10 µM, 7x7, partner max 1 µM)
Bliss excess [1]: -0.0501
Bliss excess [2]: -0.0405
Bliss excess [3]: -0.0196
Bliss excess [4]: -0.023
Bliss excess [5]: 0.0709
Bliss excess [6]: -0.025
Bliss excess [7]: -0.0211
Bliss excess [8]: -0.0598

CC(=O)Nc1cccc(-n2c(=O)n(C3CC3)c(=O)c3c(Nc4ccc(I)cc4F)n(C)c(=O)c(C)c32)c1 [Trametinib] + Cc1nc(-c2cn3c(n2)-c2ccc(-c4cnn(C(C)(C)C(N)=O)c4)cc2OCC3)n(C(C)C)n1 [Taselisib] (first compound max 1 µM, 7x7, partner max 10 µM)
Bliss excess [1]: 0.187
Bliss excess [2]: 0.0277
Bliss excess [3]: -0.0203
Bliss excess [4]: 0.066
Bliss excess [5]: 0.0238
Bliss excess [6]: 0.139
Bliss excess [7]: 0.0644
Bliss excess [8]: 0.0758

CC1(C)CCC(CN2CCN(c3ccc(C(=O)NS(=O)(=O)c4ccc(NCC5CCOCC5)c([N+](=O)[O-])c4)c(Oc4cnc5[nH]ccc5c4)c3)CC2)=C(c2ccc(Cl)cc2)C1 [Venetoclax] + C[C@@H](Nc1cc(F)cc(F)c1)c1cc(C(=O)N(C)C)cc2c(=O)cc(N3CCOCC3)oc12 [AZD8186] (first compound max 1 µM, 7x7, partner max 3 µM)
Bliss excess [1]: 0.0109
Bliss excess [2]: -0.0297
Bliss excess [3]: 0.0197
Bliss excess [4]: -0.05
Bliss excess [5]: 0.0547
Bliss excess [6]: -0.0358
Bliss excess [7]: -0.0258
Bliss excess [8]: -0.0315

CC1(C)CCC(CN2CCN(c3ccc(C(=O)NS(=O)(=O)c4ccc(NCC5CCOCC5)c([N+](=O)[O-])c4)c(Oc4cnc5[nH]ccc5c4)c3)CC2)=C(c2ccc(Cl)cc2)C1 [Venetoclax] + C=CCn1c(=O)c2cnc(Nc3ccc(N4CCN(C)CC4)cc3)nc2n1-c1cccc(C(C)(C)O)n1 [AZD1775] (first compound max 1 µM, partner max 1 µM)
Bliss excess [1]: -0.0355
Bliss excess [2]: -0.0328
Bliss excess [3]: -0.0656
Bliss excess [4]: 0.1
Bliss excess [5]: 0.0009
Bliss excess [6]: -0.0214
Bliss excess [7]: -0.0676
Bliss excess [8]: -0.0529

NC1(C(=O)N[C@@H](CCO)c2ccc(Cl)cc2)CCN(c2ncnc3[nH]ccc23)CC1 [Capivasertib] + Cn1cnc2c(F)c(Nc3ccc(Br)cc3Cl)c(C(=O)NOCCO)cc21 [Selumetinib] (first compound max 10 µM, 7x7, partner max 10 µM)
Bliss excess [1]: 0.0366
Bliss excess [2]: -0.0067
Bliss excess [3]: -0.0187
Bliss excess [4]: 0.0668
Bliss excess [5]: 0.0255
Bliss excess [6]: 0.0203
Bliss excess [7]: 0.0124
Bliss excess [8]: 0.102

Cn1cnc2c(F)c(Nc3ccc(Br)cc3Cl)c(C(=O)NOCCO)cc21 [Selumetinib] + C[C@@H]1COCCN1C2=NC(=NC(=C2)C3(CC3)[S@](=N)(=O)C)C4=C5C=CNC5=NC=C4 [AZD6738] (first compound max 10 µM, 7x7, partner max 10 µM)
Bliss excess [1]: 0.0787
Bliss excess [2]: -0.0416
Bliss excess [3]: 0.002
Bliss excess [4]: -0.0764
Bliss excess [5]: 0.0102
Bliss excess [6]: -0.0148
Bliss excess [7]: 0.0756
Bliss excess [8]: -0.0063

CC1(C)CCC(CN2CCN(c3ccc(C(=O)NS(=O)(=O)c4ccc(NCC5CCOCC5)c([N+](=O)[O-])c4)c(Oc4cnc5[nH]ccc5c4)c3)CC2)=C(c2ccc(Cl)cc2)C1 [Venetoclax] + CCN(CCO)CCCOc1ccc2c(Nc3cc(CC(=O)Nc4cccc(F)c4)[nH]n3)ncnc2c1 [AZD2811] (first compound max 1 µM, 7x7, partner max 1 µM)
Bliss excess [1]: -0.0209
Bliss excess [2]: -0.0052
Bliss excess [3]: -0.0429
Bliss excess [4]: -0.0071
Bliss excess [5]: 0.0684
Bliss excess [6]: -0.046
Bliss excess [7]: -0.0394
Bliss excess [8]: -0.005

CN(CCO)CC[C@H](CSc1ccccc1)Nc1ccc(S(=O)(=O)NC(=O)c2ccc(N3CCC([C@@H](O)c4ccccc4-c4ccc(Cl)cc4)CC3)cc2)cc1S(=O)(=O)C(F)(F)F [AZD4320] + Cn1cnc2c(F)c(Nc3ccc(Br)cc3Cl)c(C(=O)NOCCO)cc21 [Selumetinib] (first compound max 1 µM, 7x7, partner max 3 µM)
Bliss excess [1]: 0.0827
Bliss excess [2]: 0.0272
Bliss excess [3]: -0.0306
Bliss excess [4]: 0.0048
Bliss excess [5]: -0.0145
Bliss excess [6]: 0.0737
Bliss excess [7]: 0.0271
Bliss excess [8]: 0.0025
